According to ChEMBL document CHEMBL1687876, “Quercetin reduces neutrophil recruitment induced by CXCL8, LTB4, and fMLP: inhibition of actin polymerization” (J Nat Prod, 2011):
The source made the active and inactive calls. No cut-off for these calls is given here.

What was measured:
Neutrophil [1] = assay: Antiinflammatory activity in human neutrophil assessed as inhibition of LTB4-induced neutrophil chemoattraction 10 nM after 2 hrs by Boyden chamber v; assay type: functional, cell-based
Neutrophil [2] = assay: Antiinflammatory activity in human neutrophil assessed as inhibition of LTB4-induced neutrophil chemoattraction 300 to 1000 nM after 2 hrs by Boyden chamber v; assay type: functional, cell-based
Mus musculus [3] = assay: Inhibition of CXCL5-induced neutrophil recruitment in Swiss mouse at 30 mg/kg, sc administered pre-inflammatory stimulus after 6 hrs by Newbauer chamber using Romanowsky stain; assay type: functional, organism-based; design: dose 30 mg/kg
Neutrophil [4] = assay: Inhibition of BLT1 protein expression in human neutrophil at 100 nM after 30 mins by flow cytometry; assay type: functional, cell-based
Mus musculus [5] = assay: Inhibition of LTB4-induced neutrophil recruitment in Swiss mouse at 30 mg/kg, sc administered pre-inflammatory stimulus after 6 hrs by Newbauer chamber using Romanowsky stain; assay type: functional, organism-based; design: dose 30 mg/kg
Neutrophil [6] = assay: Inhibition of CXCR2 protein expression in human neutrophil at 100 nM after 30 mins by flow cytometry; assay type: functional, cell-based
Neutrophil [7] = assay: Inhibition of FLPR1 protein expression in human neutrophil at 100 nM after 30 mins by flow cytometry; assay type: functional, cell-based
Neutrophil [8] = assay: Antiinflammatory activity in human neutrophil assessed as inhibition of fMLP-induced neutrophil chemoattraction 30 nM after 2 hrs by Boyden chamber v; assay type: functional, cell-based
Mus musculus [9] = assay: Inhibition of LTB4-induced neutrophil recruitment in Swiss mouse at 300 mg/kg, sc administered pre-inflammatory stimulus after 6 hrs by Newbauer chamber using Romanowsky stain; assay type: functional, organism-based; design: dose 300 mg/kg
Neutrophil [10] = assay: Inhibition of CXCR1 protein expression in human neutrophil at 100 nM after 30 mins by flow cytometry; assay type: functional, cell-based
Neutrophil [11] = assay: Antiinflammatory activity in human neutrophil assessed as inhibition of fMLP-induced neutrophil chemoattraction 10 nM after 2 hrs by Boyden chamber v; assay type: functional, cell-based
Neutrophil [12] = assay: Antiinflammatory activity in human neutrophil assessed as inhibition of LTB4-induced neutrophil chemoattraction 100 nM after 2 hrs by Boyden chamber v; assay type: functional, cell-based
Neutrophil [13] = assay: Inhibition of fMLP-induced actin polymerization in human neutrophil at 100 nM after 30 mins by DAPI staining based immunofluorescence; assay type: functional, cell-based
Neutrophil [14] = assay: Inhibition of CXCL8-induced actin polymerization in human neutrophil at 100 nM after 30 mins by DAPI staining based immunofluorescence; assay type: functional, cell-based
Neutrophil [15] = assay: Antiinflammatory activity in human neutrophil assessed as inhibition of CXCL8-induced neutrophil chemoattraction 10 nM after 2 hrs by Boyden chamber v; assay type: functional, cell-based
Mus musculus [16] = assay: Inhibition of CXCL1-induced neutrophil recruitment in Swiss mouse at 300 mg/kg, sc administered pre-inflammatory stimulus after 6 hrs by Newbauer chamber using Romanowsky stain; assay type: functional, organism-based; design: dose 300 mg/kg
Mus musculus [17] = assay: Inhibition of fMLP-induced neutrophil recruitment in Swiss mouse at 300 mg/kg, sc administered pre-inflammatory stimulus after 6 hrs by Newbauer chamber using Romanowsky stain; assay type: functional, organism-based; design: dose 300 mg/kg
Neutrophil [18] = assay: Inhibition of LTB4-induced actin polymerization in human neutrophil at 100 nM after 30 mins by DAPI staining based immunofluorescence; assay type: functional, cell-based
Neutrophil [19] = assay: Antiinflammatory activity in human neutrophil assessed as inhibition of LTB4-induced neutrophil chemoattraction 30 nM after 2 hrs by Boyden chamber v; assay type: functional, cell-based
Mus musculus [20] = assay: Inhibition of CXCL5-induced neutrophil recruitment in Swiss mouse at 300 mg/kg, sc administered pre-inflammatory stimulus after 6 hrs by Newbauer chamber using Romanowsky stain; assay type: functional, organism-based; design: dose 300 mg/kg
Neutrophil [21] = assay: Antiinflammatory activity in human neutrophil assessed as inhibition of CXCL8-induced neutrophil chemoattraction 100 nM after 2 hrs by Boyden chamber v; assay type: functional, cell-based
Mus musculus [22] = assay: Inhibition of CXCL1-induced neutrophil recruitment in Swiss mouse at 100 mg/kg, sc administered pre-inflammatory stimulus after 6 hrs by Newbauer chamber using Romanowsky stain; assay type: functional, organism-based; design: dose 100 mg/kg
Neutrophil [23] = assay: Antiinflammatory activity in human neutrophil assessed as inhibition of CXCL8-induced neutrophil chemoattraction 300 to 1000 nM after 2 hrs by Boyden chamber v; assay type: functional, cell-based
Neutrophil [24] = assay: Antiinflammatory activity in human neutrophil assessed as inhibition of fMLP-induced neutrophil chemoattraction 100 nM after 2 hrs by Boyden chamber v; assay type: functional, cell-based
Mus musculus [25] = assay: Inhibition of fMLP-induced neutrophil recruitment in Swiss mouse at 30 mg/kg, sc administered pre-inflammatory stimulus after 6 hrs by Newbauer chamber using Romanowsky stain; assay type: functional, organism-based; design: dose 30 mg/kg
Mus musculus [26] = assay: Inhibition of CXCL1-induced neutrophil recruitment in Swiss mouse at 30 mg/kg, sc administered pre-inflammatory stimulus after 6 hrs by Newbauer chamber using Romanowsky stain; assay type: functional, organism-based; design: dose 30 mg/kg
Neutrophil [27] = assay: Antiinflammatory activity in human neutrophil assessed as inhibition of CXCL8-induced neutrophil chemoattraction 30 nM after 2 hrs by Boyden chamber v; assay type: functional, cell-based
Mus musculus [28] = assay: Inhibition of fMLP-induced neutrophil recruitment in Swiss mouse at 100 mg/kg, sc administered pre-inflammatory stimulus after 6 hrs by Newbauer chamber using Romanowsky stain; assay type: functional, organism-based; design: dose 100 mg/kg
Mus musculus [29] = assay: Inhibition of CXCL5-induced neutrophil recruitment in Swiss mouse at 100 mg/kg, sc administered pre-inflammatory stimulus after 6 hrs by Newbauer chamber using Romanowsky stain; assay type: functional, organism-based; design: dose 100 mg/kg
Mus musculus [30] = assay: Inhibition of LTB4-induced neutrophil recruitment in Swiss mouse at 100 mg/kg, sc administered pre-inflammatory stimulus after 6 hrs by Newbauer chamber using Romanowsky stain; assay type: functional, organism-based; design: dose 100 mg/kg
Neutrophil [31] = assay: Antiinflammatory activity in human neutrophil assessed as inhibition of fMLP-induced neutrophil chemoattraction 300 to 1000 nM after 2 hrs by Boyden chamber v; assay type: functional, cell-based

SMILES: O=c1c(O)c(-c2ccc(O)c(O)c2)oc2cc(O)cc(O)c12
- inhibition (Neutrophil [1]): Active
- inhibition (Neutrophil [2]): Active
- inhibition (Mus musculus [3]): inactive
- inhibition (Neutrophil [4]): inactive
- inhibition (Mus musculus [5]): inactive
- inhibition (Neutrophil [6]): inactive
- inhibition (Neutrophil [7]): inactive
- inhibition (Neutrophil [8]): Active
- inhibition (Mus musculus [9]): Active
- inhibition (Neutrophil [10]): inactive
- inhibition (Neutrophil [11]): Active
- inhibition (Neutrophil [12]): Active
- inhibition (Neutrophil [13]): Active
- inhibition (Neutrophil [14]): Active
- inhibition (Neutrophil [15]): Active
- inhibition (Mus musculus [16]): Active
- inhibition (Mus musculus [17]): Active
- inhibition (Neutrophil [18]): Active
- inhibition (Neutrophil [19]): Active
- inhibition (Mus musculus [20]): Active
- inhibition (Neutrophil [21]): Active
- inhibition (Mus musculus [22]): Active
- inhibition (Neutrophil [23]): Active
- inhibition (Neutrophil [24]): Active
- inhibition (Mus musculus [25]): Active
- inhibition (Mus musculus [26]): inactive
- inhibition (Neutrophil [27]): Active
- inhibition (Mus musculus [28]): Active
- inhibition (Mus musculus [29]): Active
- inhibition (Mus musculus [30]): Active
- inhibition (Neutrophil [31]): Active
